# PubChem BioAssay (NCI)
#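 Five compound concentrations were applied to cells in 96-well plates for 48 hours; endpoints were derived by simple linear interpolation of the resulting dose-response curve. At the TGI there is no net growth.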
# Legend:
# Assay in all cases: DTP human tumour cell line panel, 48 h
# [1] = tested on: K-562 leukemia
# [2] = tested on: MOLT-4 leukemia
# [3] = tested on: HOP-18 NSCLC
# [4] = tested on: RXF-631 renal
# [5] = tested on: M19-MEL melanoma
# [6] = tested on: XF 498 CNS
# [7] = tested on: SF-539 CNS
compound,measurement,setting,value
CCOC(=O)/C=C/CC(C)(C)COC(C)=O,TGI,[1],> 10 µM
same,TGI,[2],> 10 µM
COc1ccc(C2C(C(=O)O)=C(CO)Oc3cc4c(cc32)OCO4)cc1 (configuration not stated),TGI,[3],> 100 µM
same,TGI,[4],> 100 µM
same,TGI,[5],> 100 µM
same,TGI,[6],> 100 µM
CCC(C)C(=O)OC1C(=O)OC2CC3C(C)=CC(=O)C(O)C3(C)C3C4(O)OCC23C1C(C)C4O (configuration not stated),TGI,[7],0.0315 µM
